In paper PMC10714334, “Developing multispecies quorum-sensing modulators based on the Streptococcus mitis competence-stimulating peptide” (The Journal of Biological Chemistry, 2023):
Non-standard residues stand in square brackets, D forms with d. Residues, ends and D or L forms follow the SMILES beside them. No end group written: not given here.

Tests used:
[1] = test system: defibrinated rabbit red blood cells; test: hemolysis assay; format: cell-based; conditions: mean ± S.D., SD
Method: A single colony of S. mitis ATCC 49456 was grown for 16 h at 37 °C with 5% CO2 in 5 mL THY media (pH 7.3). Overnight cultures were then diluted 1:10 in fresh THY media. Samples were prepared in clear bottom 96 -well microtiter plates. Experimental samples were prepared by adding 196 µL of the 1:10 diluted culture and 2 µL of a 1 mM S. mitis-CSP-2 and the lead S. mitis-CSP-2 analogs (lead activator, S. mitis-CSP-2-n11, and lead inhibitor, S. mitis-CSP-2-E1Af10r16), or 196 µL of fresh THY media and 2 µL of a 1 mM S. mitis-CSP-2/ S. mitis-CSP-2 analog stock.
Two µL of DMSO was added to each well. A positive control was prepared by adding 2 µL of a 1% Triton X solution and 2 µL of DMSO in 196 µL THY media, and negative controls were prepared by adding 4 µL DMSO in either 196 µL 1:10 diluted culture or 196 µL THY media. The 96-well microtiter plate was then incubated for 2 h at 37 °C with 5% CO 2, after which the optical density at 600 nm (OD600) was recorded and hemolysis was assessed. A 1 mL portion of defibrinated rabbit red blood cells ( VWR International) was aliquoted into a sterile 1.5 mL microcentrifuge tube, and centrifuged at 2,000 rpm for 2 min. Following centrifugation, the top layer was aliquoted off, and red blood cells were gently washed with sterile1 mL 1X PBS. This process was repeated for a total of three times, until following centrifugation the top layer was mostly clear. Washed red blood cells were resuspended in sterile 1 mL 1X PBS solution, and a 15 µL aliquot was added to each well of the 96 -well microtiter plate. The plate was then incubated for 30 min at 37 °C. Following incubation, the plate was centrifuged for 4 min at 4 °C at 1600 rpm .
Experimental wells were then diluted 1:5 in distilled water to prevent saturation of the detector by the positive control. The absorbance at 420 nm (OD420) was then measured for each well.
Experiments were performed in triplicate on three separate days. Data are presented as the percent hemolysis relative to the .01% Triton X positive control. Results are expressed as the mean +/ - the standard deviation of three independent experiments. […]

S. mitis ComD-2 receptor = test: luminescence reporter competitive inhibition assay (comX expression); format: cell-based, Streptococcus mitis; conditions: same reporter strain; competition against 1 μM native S. mitis-CSP-2; 30 min at 37 °C; triplicate on three separate days
Method: As a positive control, 2 μl of S. mitis-CSP-2 and 2 μl of DMSO were added to the same well in triplicate. As a negative control, 4 μl of DMSO was added in triplicate. Then, 2 μl of 15 mg/ml D-luciferin in distilled water was added to each experimental or control well, after which 194 μl of bacteria was added, and the plate was incubated for 30 min at 37 °C. Following incubation, the A600 and luminescence of each experimental well were measured. Results were reported as percent activation, which is the ratio between the luminescence (presented as relative luminescence units, RLU/A600) of the analog and that of the positive control. […] GraphPad Prism was used to calculate the IC50 values, which are the concentration of inhibitor where the response (or binding) is reduced by half. Experiments were performed in triplicate on three separate days.
Antagonism assays were performed at 10 μM concentration of peptides against 1 µM concentration of S. mitis-CSP-2. S. mitis-CSP-2 (1 µM) was used as the positive control (100%) while DMSO as the negative control (0%). For all figures, comX expression is presented as relative luminescence units (RLU) divided by measured cultural optical density (OD). Percent (%) ComD activation was measured by normalizing the RLU/OD value obtained for each peptide to that of the native S. mitis-CSP-2. The results are averages from three replicates and representative of three independent experiments. Error bars represent the standard error of the mean of nine values.
Figure S-8. Primary antagonism screening assay data for t he S. mitis-CSP-2 alanine scan and D-amino acid […]
determine its IC50 value.
Figure S-9. Primary antagonism screening assay data for t he S. mitis-CSP-2 truncated analogs . S. mitis- […]

[2] = test system: pneumococcus ComD1 receptor; conditions: cited from earlier work
Excerpt: (§1) Table 5 EC50 or IC50 values of select Streptococcus mitis-CSP-2–based pneumococcal QS modulators against the pneumococcus ComD1 and ComD2 and the S. mitis ComD-2 receptors ^a | column: Streptococcus pneumoniae ^b / ComD1 / EC50 or IC50∗ (nM) || In our previous work, we utilized the S. mitis-CSP-2 scaffold to develop analogs capable of modulating the two pneumococcal ComD receptors at low nanomolar concentrations ([2]). We wanted to evaluate whether the optimization of the S. mitis-CSP-2 scaffold to the pneumococcus ComD receptors affected the ability of the modified analogs to interact with the S. mitis ComD-2 receptor.

[3] = test system: pneumococcus ComD2 receptor; conditions: cited from earlier work
Excerpt: as §1, with “/ ComD2” for “/ ComD1”

[4] = peptide alone with S. mitis ATCC 49456 culture

With `CC[C@H](C)[C@H](NC(=O)[C@H](C)N)C(=O)N[C@@H](CCCNC(=N)N)C(=O)N[C@@H](CCC(N)=O)C(=O)N[C@H](C(=O)N[C@@H](Cc1c[nH]cn1)C(=O)N[C@@H](CC(N)=O)C(=O)N[C@H](C(=O)N[C@@H](Cc1ccccc1)C(=O)N[C@H](Cc1ccccc1)C(=O)N[C@@H](CC(N)=O)C(=O)N[C@@H](Cc1ccccc1)C(=O)N[C@@H](Cc1ccccc1)C(=O)N[C@@H](CCCCN)C(=O)N[C@@H](CCCNC(=N)N)C(=O)N[C@H](CCCNC(=N)N)C(=O)O)[C@@H](C)CC)[C@@H](C)O` [S. mitis-CSP-2-E1Af10r16] (H-AIRQTHNIF[dF]NFFKR[dR]-OH) the “hemolysis relative to Triton X positive control” value ([1]; inhibitor together with S. mitis-CSP-2, with S. mitis ATCC 49456 culture) was -3.1% ±16%, the “hemolysis relative to Triton X positive control” value ([1]; inhibitor together with S. mitis-CSP-2 in THY media) was -2.3% ±7.0% and the “hemolysis relative to Triton X positive control” value [1, 4] was -6.9% ±19%.
For `CC[C@H](C)[C@H](NC(=O)[C@H](CC(N)=O)NC(=O)[C@H](Cc1c[nH]cn1)NC(=O)[C@@H](NC(=O)[C@H](CCC(N)=O)NC(=O)[C@H](CCCNC(=N)N)NC(=O)[C@@H](NC(=O)[C@@H](N)CCC(=O)O)[C@@H](C)CC)[C@@H](C)O)C(=O)N[C@@H](Cc1ccccc1)C(=O)N[C@@H](Cc1ccccc1)C(=O)N[C@H](CC(N)=O)C(=O)N[C@@H](Cc1ccccc1)C(=O)N[C@@H](Cc1ccccc1)C(=O)N[C@@H](CCCCN)C(=O)N[C@@H](CCCNC(=N)N)C(=O)N[C@@H](CCCNC(=N)N)C(=O)O` [S. mitis-CSP-2-n11] (H-EIRQTHNIFF[dN]FFKRR-OH), the “hemolysis relative to Triton X positive control” value [1, 4] was -9.8% ±30%.
In the case of `CC(C)(C)CC(C)(C)c1ccc(OCCO)cc1` [Triton X, reference compound], the “hemolysis, positive control” value ([1]; 0.01% Triton X in THY media) is reported as 100% ± 15%.
In the case of “AIRQTHNIFFFLFKRR [S. mitis-CSP-2-E1AN11FF12L]”, the IC50 (S. mitis ComD-2 receptor) is listed as over 1 µM, the “inhibitory activity against S. pneumoniae ComD1 receptor” value [2] is listed as “no inhibitory activity” and the “inhibitory activity against S. pneumoniae ComD2 receptor” value [3] is listed as “no inhibitory activity”.
In the case of “EIRQTHNIFFNFFKRR [S. mitis-CSP-2, reference compound]”, the “hemolysis relative to Triton X positive control” value [1, 4] is reported as -9.6% ±24%.
